# Measurements from patent US20100048660A1, “TREATMENT OF DUCHENNE MUSCULAR DYSTROPHY” (priority 2006, published 2010).
# Tested on: Utrophin A promoter linked to a luciferase reporter gene (H2K/mdx/Utro A reporter cell line)
# Assay: Luciferase reporter assay (murine H2K cells)
# Type: cell-based
# Settings: Mus musculus; Table 1; murine H2K mdx myoblasts, compound final concentration 10 μM, 48 hrs; read-out: Activity (luciferase reporter assay, relative to control)
# Procedure: 1. Luciferase Reporter Assay (Murine H2K Cells)
# The cell line used for the screen is an immortalized mdx mouse H2K cell line that has been stably transfected with a plasmid containing ≈5 kb fragment of the Utrophin A promoter including the first untranslated exon linked to a luciferase reporter gene (see FIG. 1).
# Under conditions of low temperature and interferon containing media, the cells remain as myoblasts. These are plated into 96 well plates and cultured in the presence of compound for three days. The level of luciferase is then determined by cell lysis and reading of the light output from the expressed luciferase gene utilising a plate luminometer.
# The H2K/mdx/Utro A reporter cell line was passaged twice a week until ≦30% confluent. The cells were grown at 33° C. in the presence of 10% CO2
# The H2K/mdx/Utro A reporter cell line cells were plated out into 96 well plates (Falcon 353296, white opaque) at a density of approximately 5000 cells/well in 190 μl normal growth medium. The plates were then incubated at 33° C. in the presence of 10% CO2 for 24 hrs.
# Compounds were dosed by adding 10 μl of diluted compound to each well giving a final concentration of 10 μM. The plates were then incubated for a further 48 hrs
# Cells were then lysed in situ following the manufacture's protocols (Promega Steady-Glo Luciferase Assay System (E2520). Then counted for 10 seconds using a plate luminometer (Victorl420).
row,Structure (SMILES),activity at 10 µM [%]
1,"CCN(CC)c1ccc(-n2nc3ccc(NC(=O)c4ccc(Cl)cc4)cc3n2)cc1 [Example 32, 4-chloro-N-(2-(4-(diethylamino)phenyl)-2H-benzo[d][1,2,3]triazol-5-yl)benzamide]",< 200
2,"COc1ccc(C(=O)Nc2cc3nn(-c4ccc(Cl)cc4)nc3cc2C)cc1 [Example 4, N-(2-(4-chlorophenyl)-6-methyl-2H-benzo[d][1,2,3]triazol-5-yl)-4-methoxybenzamide]",201 to 300
3,"CCN(CC)c1ccc(-n2nc3ccc(NC(=O)c4cccs4)cc3n2)cc1 [Example 28, N-(2-(4-(diethylamino)phenyl)-2H-benzo[d][1,2,3]triazol-5-yl)thiophene-2-carboxamide]",< 200
4,"CC(C)C(=O)Nc1ccc2cn(-c3ccc(Cl)cc3)nc2c1 [Example 46, N-(2-(4-chlorophenyl)-2H-indazol-6-yl)isobutyramide]",> 401
5,"CS(=O)(=O)c1ccc2nn(-c3ccc(Cl)cc3)nc2c1 [Example 49, 2-(4-chlorophenyl)-5-(methylsulfonyl)-2H-benzo[d][1,2,3]triazole]",< 200
6,"CCN(CC)c1ccc(-n2nc3ccc(NC(C)=O)cc3n2)cc1 [Example 22, N-(2-(4-(diethylamino)phenyl)-2H-benzo[d][1,2,3]triazol-5-yl)acetamide]",201 to 300
7,"CC(C)C(=O)Nc1ccc2nn(-c3ccc(Cl)c(Cl)c3)nc2c1 [Example 53, N-(2-(3,4-Dichlorophenyl)-2H-benzo[d][1,2,3]triazol-5-yl)isobutyramide]",> 401
8,"Cc1cc2nn(-c3ccc(N4CCOCC4)cc3)nc2cc1N [Example 34, 6-methyl-2-(4-morpholinophenyl)-2H-benzo[d][1,2,3]triazol-5-amine]",201 to 300
9,"Cc1cc2nn(-c3ccc(Cl)cc3)nc2cc1NC(=O)c1cccs1 [Example 6, N-(2-(4-chlorophenyl)-6-methyl-2H-benzo[d][1,2,3]triazol-5-yl)thiophene-2-carboxamide]",301 to 400
10,"Cc1cc2nn(-c3ccc(Cl)cc3)nc2cc1NC(=O)c1ccco1 [Example 11, N-(2-(4-chlorophenyl)-6-methyl-2H-benzo[d][1,2,3]triazol-5-yl)furan-2-carboxamide]",201 to 300
11,"CCCC(=O)Nc1ccc2nn(-c3ccc(N(CC)CC)cc3)nc2c1 [Example 24, N-(2-(4-(diethylamino)phenyl)-2H-benzo[d][1,2,3]triazol-5-yl)butyramide]",< 200
12,"CCN(CC)c1ccc(-n2nc3ccc(NC(=O)c4ccccc4OC)cc3n2)cc1 [Example 31, N-(2-(4-(diethylamino)phenyl)-2H-benzo[d][1,2,3]triazol-5-yl)-2-methoxybenzamide]",< 200
13,"CCN(CC)c1ccc(-n2nc3cc(C)c(NC(=O)c4cccnc4)cc3n2)cc1 [Example 12, N-(2-(4-(diethylamino)phenyl)-6-methyl-2H-benzo[d][1,2,3]triazol-5-yl)nicotinamide]",301 to 400
14,"CN1CCN(c2ccc(-n3nc4ccc(N)cc4n3)cc2)CC1 [Example 42, 2-(4-(4-methylpiperazin-1-yl)phenyl)-2H-benzo[d][1,2,3]triazol-5-amine]",< 200
15,"O=[N+]([O-])c1ccc2cn(-c3ccc(Cl)cc3)nc2c1 [Example 45, 2-(4-chlorophenyl)-6-nitro-2H-indazole]",< 200
16,"CCS(=O)(=O)c1ccc2nn(-c3ccc(Cl)cc3)nc2c1 [Example 52, 2-(4′-chlorophenyl)-5-(ethylsulfonyl)-benzotriazole]",> 401

row,Structure (SMILES),activity at 10 µM [%]
1,"Nc1ccc2nn(-c3ccc(N4CCCCC4)cc3)nc2c1 [Example 40, 2-(4-(piperidin-1-yl)phenyl)-2H-benzo[d][1,2,3]triazol-5-amine]",201 to 300
2,"CCCCC(=O)Nc1cc2nn(-c3ccc(Cl)cc3)nc2cc1C [Example 9, N-(2-(4-chlorophenyl)-6-methyl-2H-benzo[d][1,2,3]triazol-5-yl)pentanamide]",201 to 300
3,"Cc1cc2nn(-c3ccc(Cl)cc3)nc2cc1NC(=O)c1ccncc1 [Example 2, N-(2-(4-chlorophenyl)-6-methyl-2H-benzo[d][1,2,3]triazol-5-yl)isonicotinamide]",201 to 300
4,"CS(=O)(=O)c1ccc2nn(-c3ccc(Cl)c(Cl)c3)nc2c1 [Example 50, 2-(3,4-dichlorophenyl)-5-(methylsulfonyl)-2H-benzo[d][1,2,3]triazole]",201 to 300
5,"CCC(=O)Nc1ccc2nn(-c3ccc(Cl)cc3)nc2c1 [Example 35, N-(2-(4-chlorophenyl)-2H-benzo[d][1,2,3]triazol-5-yl)propionamide]",> 401
6,"CCCC(=O)Nc1cc2nn(-c3ccc(N(CC)CC)cc3)nc2cc1C [Example 15, N-(2-(4-(diethylamino)phenyl)-6-methyl-2H-benzo[d][1,2,3]triazol-5-yl)butyramide]",< 200
7,"CCCCC(=O)Nc1ccc2nn(-c3ccc(N(CC)CC)cc3)nc2c1 [Example 25, N-(2-(4-(diethylamino)phenyl)-2H-benzo[d][1,2,3]triazol-5-yl)pentanamide]",< 200
8,"CS(=O)(=O)c1ccc2nn(-c3ccc4ccccc4c3)[n+]([O-])c2c1 [Example 54, 6-(Methylsulfonyl)-2-(naphthalen-2-yl)-2H-benzo[d][1,2,3]triazole 1-oxide]",201 to 300
9,"CCCC(=O)Nc1cc2nn(-c3ccc(Cl)cc3)nc2cc1C [Example 8, N-(2-(4-chlorophenyl)-6-methyl-2H-benzo[d][1,2,3]triazol-5-yl)butyramide]",201 to 300
10,"Cc1cc2nn(-c3ccc(Cl)cc3)nc2cc1N [Example 43, 2-(4-chlorophenyl)-6-methyl-2H-benzo[d][1,2,3]triazol-5-amine]",> 401
11,"CS(=O)(=O)c1ccc2cn(-c3ccc(Cl)cc3)nc2c1 [Example 44, 2-(4-chlorophenyl)-6-(methylsulfonyl)-2H-indazole]",201 to 300
12,"CCN(CC)c1ccc(-n2nc3cc(C)c(NC(=O)c4ccncc4)cc3n2)cc1 [Example 13, N-(2-(4-(diethylamino)phenyl)-6-methyl-2H-benzo[d][1,2,3]triazol-5-yl)isonicotinamide]",301 to 400
13,"CCN(CC)c1ccc(-n2nc3ccc(NC(=O)c4ccncc4)cc3n2)cc1 [Example 21, N-(2-(4-(diethylamino)phenyl)-2H-benzo[d][1,2,3]triazol-5-yl)isonicotinamide]",< 200
14,"CC(C)C(=O)Nc1ccc2nn(-c3ccc(Cl)cc3)nc2c1 [Example 37, N-(2-(4-chlorophenyl)-2H-benzo[d][1,2,3]triazol-5-yl)isobutyramide]",> 401
15,"Clc1ccc(-n2cc3ccccc3n2)cc1 [Example 48, 2-(4-chlorophenyl)-2H-indazole]",> 401

# Same assay, conditions: Mus musculus; Table 2; murine H2K mdx myoblasts, compound final concentration 10 μM, 48 hrs; read-out: Activity (luciferase reporter assay, relative to control)
row,Structure (SMILES),activity at 10 µM [%]
1,"Cc1ccc(-n2nc3cc(C)c(N)cc3n2)cc1 [Example 65, 6-methyl-2-p-tolyl-2H-benzo[d][1,2,3]triazol-5-amine]",201 to 300
2,"CCc1ccc(-n2nc3ccc(N)cc3n2)cc1 [Example 68, 2-(4-ethylphenyl)-2H-benzo[d][1,2,3]triazol-5-amine]",201 to 300
3,"COc1ccc(-n2nc3cc(C)c(NC(C)=O)cc3n2)cc1 [Example 66, N-(2-(4-methoxyphenyl)-6-methyl-2H-benzo[d][1,2,3]triazol-5-yl)acetamide]",< 200
